Data: US9023865B2, “Compounds that are ERK inhibitors” (Merck Sharp & Dohme Corp., priority 2011, dated 2015)
Where two headings read alike, the source gives them in different places.

Target: Active Human ERK2 (hERK2) (Homo sapiens (Human), UniProt P28482)
Assay: Active Human ERK2 (hERK2) Activity Assay (IMAP-FP)
Type: biochemical
Experimental: Assays Active Human ERK2 (hERK2) Activity Assay:
Activated ERK2 activity was determined in an IMAP-FP assay (Molecular Devices). […] The final reaction in each well of 25 μL consists of 0.5 nM hERK2, 900 nM unlabeled peptide, 80 nM labeled-peptide, and 30 μM ATP. Phosphorylation reactions were allowed to proceed for 60 minutes and were immediately quenched by the addition of […] IMAP detection beads (1:1000 dilutions) in IMAP binding buffer (Molecular Devices) with 24 mM NaCl. Plates were read on EnVision reader after 60 minutes binding equilibration using Fluorescence Polarization protocol (Perkin Elmer).

[1] = phosphorylated active hERK2, 30 μM ATP, average, read-out: ERK 2 Human average IC50
[2] = read-out: AERK2 IC50 (Active human ERK2 Activity Assay)

Chain of Active Human ERK2 (hERK2) (P28482 whole entry): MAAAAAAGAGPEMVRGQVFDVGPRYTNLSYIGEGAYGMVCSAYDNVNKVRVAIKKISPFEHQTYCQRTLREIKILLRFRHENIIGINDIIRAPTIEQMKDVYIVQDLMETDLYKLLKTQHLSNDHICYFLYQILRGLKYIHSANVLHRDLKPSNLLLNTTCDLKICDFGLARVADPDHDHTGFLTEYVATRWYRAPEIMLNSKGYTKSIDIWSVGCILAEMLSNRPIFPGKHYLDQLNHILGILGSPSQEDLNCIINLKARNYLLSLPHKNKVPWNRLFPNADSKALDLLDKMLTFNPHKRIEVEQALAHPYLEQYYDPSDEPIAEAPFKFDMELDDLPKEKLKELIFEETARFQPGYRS

Compound | IC50 [1] [nM] | IC50 [2] [nM]
C[C@@H](NC(=O)Nc1cc2[nH]nc(-c3ccc4nncn4c3)c2cn1)c1ccc(F)cc1 [Example 246] | 0.581 | 
Cc1cc(-c2n[nH]c3cc(NC(=O)N[C@@H]4CN(CC(F)(F)F)C[C@H]4c4ccccc4)ncc23)ccn1 [Example 330] | 3.06 | 
Cc1ccc(-c2n[nH]c3cc(NC(=O)N[C@H](C)c4ccc(F)cc4)ncc23)s1 [Example 248] | 11.7 | 
C[C@@H](NC(=O)Nc1cc2[nH]nc(C(F)F)c2cn1)c1ccccn1 [Example 678] | 765 | 
O=C(Nc1cc2[nH]nc(C3CC3)c2cn1)N[C@@H]1CCOc2ccccc21 [Example 154] | 70 | 
C[C@@H](NC(=O)Nc1cc2[nH]nc(-c3cnoc3)c2cn1)c1ccccc1 [Example 640] | 3.6 | 
Cc1cc(-c2n[nH]c3cc(NC(=O)NCC4(c5ccc(OC(F)(F)F)cc5)CC4)ncc23)ccn1 [Example 268] | 91.6 | 
Cc1cc(-c2n[nH]c3cc(NC(=O)N[C@@H](c4ccccc4)[C@H]4CCCO4)ncc23)ccn1 [Example 553] | 0.26 | 
C[C@@H](NC(=O)Nc1cc2[nH]nc(C(F)F)c2cn1)c1ccc(F)cc1 [Example 669] | 21.6 | 
Cc1cc(-c2n[nH]c3cc(NC(=O)N[C@@H]4COC[C@H]4c4ccccc4)ncc23)ccn1 [Example 580] | 0.193 | 
COC[C@@H](NC(=O)Nc1cc2[nH]nc(-c3ccc4c(c3)nnn4C)c2cn1)c1ccc(F)cc1 [Example 301] | 0.562 | 
CN1CC[C@@H](NC(=O)Nc2cc3[nH]nc(-c4ccc(F)cc4)c3cn2)C1 [Example 316] | 1.84 | 
Cc1cc(-c2n[nH]c3cc(NC(=O)NC4CCCOc5ccccc54)ncc23)no1 (stereo not drawn) [Example 690] | 240 | 
O=C(NCCC1CCOC1)Nc1cc2[nH]nc(-c3ccc(F)cc3)c2cn1 (stereo not drawn) [Example 219] | 1.68 | 
O=C(Nc1cc2[nH]nc(C(F)F)c2cn1)N[C@H](COCC1CC1)c1ccccc1 [Example 693] | 21.4 | 
Cc1cc(-c2n[nH]c3cc(NC(=O)NCCF)ncc23)ccn1 [Example 199] | 4.86 | 
C[C@@H](NC(=O)Nc1cc2[nH]nc(-c3ccc(C#N)cc3)c2cn1)c1ccccc1 [Example 66, 1-[3-(4-cyanophenyl)-1H-pyrazolo[4,3-c]pyridin-6-yl]-3-[(1R)-1-phenylethyl]urea] | 1.06 | 0.2 to 1.7
Cc1cc(-c2n[nH]c3cc(NC(=O)N[C@@H]4CN(C)C[C@H]4c4ccccc4)ncc23)ccn1 [Example 582] | 0.234 | 
Cc1cc(-c2n[nH]c3cc(NC(=O)N[C@@H]4CCCc5ccncc54)ncc23)ccn1 [Example 263] | 1.8 | 
Cc1cc(-c2n[nH]c3cc(NC(=O)NCc4ccsn4)ncc23)ccn1 [Example 476] | 0.587 | 
Cc1cc(-c2n[nH]c3cc(NC(=O)NC(c4ccccc4)C(F)F)ncc23)ccn1 (stereo not drawn) [Example 379] | 1.51 | 
Cc1cc(-c2n[nH]c3cc(NC(=O)NCc4ccc(F)cc4)ncc23)ccn1 [Example 273] | 0.945 | 
COC(=O)C1CC1c1n[nH]c2cc(NC(=O)N[C@H](C)c3ccccc3)ncc12 (stereo partly drawn) [Example 642] | 327 | 

Compound | IC50 [1] [nM] | IC50 [2] [nM]
COC[C@H](Cc1ccccc1)NC(=O)Nc1cc2[nH]nc(-c3ccnc(C)c3)c2cn1 [Example 494] | 4.34 | 
Cc1cc(-c2n[nH]c3cc(NC(=O)N[C@H](C)c4ccc(F)c(F)c4)ncc23)ccn1 [Example 412] | 0.303 | 
Cc1cc(-c2n[nH]c3cc(NC(=O)NC4(C#N)CC4)ncc23)ccn1 [Example 201] | 92 | 
Cc1cc(-c2n[nH]c3cc(NC(=O)N[C@@H]4[C@H](CO)[C@H]5CC[C@@H]4O5)ncc23)ccn1 [Example 367] | 4.51 | 
Cc1ccc2nc(CNC(=O)Nc3cc4[nH]nc(-c5ccnc(C)c5)c4cn3)cn2c1 [Example 391] | 22.2 | 
O=C(NCc1ccc(F)c(Cl)c1)Nc1cc2[nH]nc(-c3ccnc(F)c3)c2cn1 [Example 58, 1-(3-chloro-4-fluorobenzyl)-3-[3-(2-fluoropyridin-4-yl)-1H-pyrazolo[4,3-c]pyridin-6-yl]urea] | 1 | 0.2 to 1.7
COc1ccnc([C@@H](C)NC(=O)Nc2cc3[nH]nc(-c4ccnc(C)c4)c3cn2)c1 [Example 231] | 1.53 | 
Cc1cc(-c2n[nH]c3cc(NC(=O)NC4(c5ccccn5)CCCC4)ncc23)ccn1 [Example 358] | 137 | 
CCOCCNC(=O)Nc1cc2[nH]nc(-c3ccc(F)cc3)c2cn1 [Example 616] | 0.61 | 
Cc1cc(-c2n[nH]c3cc(NC(=O)NCc4cn5c(C)cccc5n4)ncc23)ccn1 [Example 392] | 22.6 | 
CNC1(CNC(=O)Nc2cc3[nH]nc(-c4ccnc(C)c4)c3cn2)CCOC1 (stereo not drawn) [Example 197] | 53.7 | 
Cc1cc(-c2n[nH]c3cc(NC(=O)NCc4nnc(C)s4)ncc23)ccn1 [Example 474] | 33.7 | 
C[C@@H](NC(=O)Nc1cc2[nH]nc(C(C)(C)O)c2cn1)c1ccccc1 [Example 611] | 122 | 
Cc1cc(-c2n[nH]c3c(F)c(NC(=O)NC(C)c4ccccn4)ncc23)ccn1 (stereo not drawn) [Example 225] | 2.45 | 
COC[C@@H](NC(=O)Nc1cc2[nH]nc(-c3ccnc(C4CC4)c3)c2cn1)c1ccccc1 [Example 605] | 0.326 | 
C[C@@H](NC(=O)Nc1cc2[nH]nc(-c3cnn(CC(C)(C)O)c3)c2cn1)c1ccccc1 [Example 639] | 0.535 | 
C[C@@H](NC(=O)Nc1cc2[nH]nc(C(=O)NCC3CCOC3)c2cn1)c1ccccc1 (stereo partly drawn) [Example 121] | 3.83 | 
COC[C@@H](NC(=O)Nc1cc2[nH]nc(-c3ccc(C#N)nc3)c2cn1)c1ccc(F)cc1 [Example 303] | 3.21 | 
Cc1cc(-c2n[nH]c3cc(NC(=O)N[C@H]4CCN(CC(F)(F)F)C4)ncc23)ccn1 [Example 327] | 0.448 | 
CCCCNC(=O)Nc1cc2[nH]nc(C3CCC3)c2cn1 [Example 143, 1-butyl-3-(3-cyclobutyl-1H-pyrazolo[4,3-c]pyridin-6-yl)urea] | 39.7 | 
C[C@@H](NC(=O)Nc1cc2[nH]nc(-c3cncc(F)c3)c2cn1)c1ccc(F)cc1 [Example 664] | 2.49 | 
Cc1cc(-c2n[nH]c3cc(NC(=O)N[C@H]4CN(C)C[C@@H]4c4ccccc4C)ncc23)ccn1 [Example 216, 1-((3R,4S)-1-methyl-4-(o-tolyl)pyrrolidin-3-yl)-3-(3-(2-methylpyridin-4-yl)-1H-pyrazolo[4,3-e]pyridin-6-yl)urea] | 66.3 | 
COC(=O)C(NC(=O)Nc1cc2[nH]nc(-c3ccnc(C)c3)c2cn1)C(F)(F)F (stereo not drawn) [Example 457] | 31.1 | 

Compound | IC50 [1] [nM] | IC50 [2] [nM]
O=C(Nc1cc2[nH]nc(-c3ccc(F)cc3)c2cn1)NC1CCOC1 (stereo not drawn) [Example 612] | 12.6 | 
C[C@@H](NC(=O)Nc1cc2[nH]nc(-c3ccnc(F)c3)c2cn1)c1ccc(F)cc1 [Example 645] | 0.621 | 
COC(C)CNC(=O)c1n[nH]c2cc(NC(=O)N[C@H](C)c3ccccc3)ncc12 (stereo partly drawn) [Example 131] | 13.4 | 
Cc1nc2ccc(-c3n[nH]c4cc(NC(=O)N[C@H](C)c5ccccc5)ncc34)cc2o1 [Example 652] | 0.72 | 
COc1ncc(-c2n[nH]c3cc(NC(=O)N[C@H](C)c4ccccc4)ncc23)cn1 [Example 313] | 0.717 | 
C[C@@H](NC(=O)Nc1cc2[nH]nc(-c3ccnc(F)c3)c2cn1)c1ccccc1 [Example 636] | 0.251 | 
Cc1cc(-c2n[nH]c3cc(NC(=O)NCC4CN(C)CCO4)ncc23)ccn1 (stereo not drawn) [Example 198] | 5.95 | 
Cc1cc(-c2n[nH]c3cc(NC(=O)NCCc4cn[nH]c4)ncc23)ccn1 [Example 394] | 0.85 | 
C[C@@H](NC(=O)Nc1cc2[nH]nc(C3CC3)c2cn1)c1ccc(Cl)cc1 [Example 150] | 10.4 | 
C[C@@H](NC(=O)Nc1cc2[nH]nc(C3CCC3)c2cn1)c1ccc(Cl)cc1 [Example 151] | 11.1 | 
C[C@@H](NC(=O)Nc1cc2[nH]nc(-c3cnn(C)c3)c2cn1)c1ccc(F)c(Cl)c1 [Example 72, 1-[(1R)-1-(3-chloro-4-fluorophenyl)ethyl]-3-[3-(1-methyl-1H-pyrazol-4-yl)-1H-pyrazolo[4,3-c]pyridin-6-yl]urea] | 0.709 | 0.2 to 1.7
C[C@@H](NC(=O)Nc1cc2[nH]nc(-c3ccc4c(c3)OCCO4)c2cn1)c1ccccc1 [Example 88, 1-[3-(2,3-dihydro-1,4-benzodioxin-6-yl)-1H-pyrazolo[4,3-c]pyridin-6-yl]-3-[(1R)-1-phenylethyl]urea] | 1.16 | 0.2 to 1.7
COC[C@@H](NC(=O)Nc1ncc2c(-c3ccnc(C)c3)n[nH]c2c1F)c1ccccc1 [Example 542] | 0.269 | 
COC[C@@H](NC(=O)Nc1cc2[nH]nc(-c3ccc4cn(C)nc4c3)c2cn1)c1ccccc1 [Example 614] | 0.481 | 
COC(=O)C1CC1c1n[nH]c2cc(NC(=O)N[C@H](C)c3ccccc3)ncc12 (stereo partly drawn) [Example 641] | 1100 | 
C[C@@H](NC(=O)Nc1cc2[nH]nc(C(=O)NCC3(N(C)C)CCC3)c2cn1)c1ccccc1 [Example 119] | 211 | 
C[C@@H](NC(=O)Nc1cc2[nH]nc(-c3ccc4nn(C)cc4c3)c2cn1)c1ccc(F)cc1 [Example 63, 1-[(1R)-1-(4-fluorophenyl)ethyl]-3-[3-(2-methyl-2H-indazol-5-yl)-1H-pyrazolo[4,3-c]pyridin-6-yl]urea] | 0.405 | 0.2 to 1.7
Cc1cc(-c2n[nH]c3cc(NC(=O)NCc4ccc(F)cn4)ncc23)ccn1 [Example 516] | 2.35 | 
O=C(Nc1ncc2c(-c3ccncc3)n[nH]c2c1F)N[C@H](CO)c1ccccc1 [Example 548] | 0.315 | 
Cc1cc(-c2n[nH]c3cc(NC(=O)NC4CCCOc5ccccc54)ncc23)no1 (stereo not drawn) [Example 689] | 5.15 | 
Cc1cc(-c2n[nH]c3cc(NC(=O)NCCOC(C)C)ncc23)ccn1 [Example 451] | 2.14 | 
